Patent US20120010206A1, “IMIDAZOLOPYRIDINE COMPOUNDS USEFUL FOR THE TREATMENT OF DEGENERATIVE AND INFLAMMATORY DISEASES” (priority 2006, published 2012)
pIC50: −log10 of the molar value.

molecular target: T1, TAK1-TAB1 fusion protein (Homo sapiens, UniProt O43318); assay: In vitro TAK1 kinase assay (33P-ATP, casein substrate); type: biochemical; conditions: semi-quantitative score, at least two independent experiments
T1 construct: purchased Upstate 14-600
T1 sequence (O43318 with tags, fused parts or gaps limits assumed): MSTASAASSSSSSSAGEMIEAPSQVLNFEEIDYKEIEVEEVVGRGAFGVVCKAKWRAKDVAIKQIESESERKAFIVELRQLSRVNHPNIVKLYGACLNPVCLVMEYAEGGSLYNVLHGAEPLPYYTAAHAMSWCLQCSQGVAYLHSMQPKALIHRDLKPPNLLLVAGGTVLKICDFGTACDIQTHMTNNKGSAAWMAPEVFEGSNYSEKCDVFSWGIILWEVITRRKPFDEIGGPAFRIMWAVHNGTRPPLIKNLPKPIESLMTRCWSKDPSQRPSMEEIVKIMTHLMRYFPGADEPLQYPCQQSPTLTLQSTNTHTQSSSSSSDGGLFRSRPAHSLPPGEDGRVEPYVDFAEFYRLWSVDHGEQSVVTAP
Method: For assessing TAK1 inhibition, active TAK1-TAB1 fusion protein was used from Upstate (Cat. No, 14-600). Kinase reactions are set up in 96-well polypropylene plates in 25 μL containing 0.5 mU TAK1-TAB1 fusion protein, […], 0.01 μCi/μL [^33P]-γ-ATP, 0.1 mg/mL casein substrate in 1× reaction buffer containing 10 mM MOPS pH 7.0, 1 mM EDTA.
Starting from the compound master stocks (all at 10 mM concentration in 100% DMSO) a 3-fold serial dilution is made in 96-well plates in 100% DMSO. Plates are further diluted […] in H2O containing 3.5% DMSO, to obtain an intermediate work stock with compounds at 5× the final assay concentration in 5% DMSO.
5 μL of the intermediate stock is transferred into V-bottom 96 well polypropylene plates and 11 μL of Enzyme mix is added. Enzyme mix is made by combining 5 μL 5× reaction buffer ([…] pH 7.0, 1 mM EDTA), 5 μL casein (Sigma) diluted in H2O to 0.5 mg/mL and 1 μL of TAK1-TAB1 fusion protein that was prediluted to 0.5 mU/μL in 1× enzyme dilution buffer (20 mM MOPS pH 7.0, 0.1 mM EDTA, 0.01% Brij-35, 5% glycerol, 1 mM DTT, 1 mg/ml BSA).
The reactions are started by the addition of 9 μL of mixture containing ATP (20.83 uM) and [^33P]-γ-ATP (0.028 μCi/μL).
The assay is stopped 90 minutes after incubation at 30° C. by the addition of 25 μL phosphoric acid (150 mM). The label incorporated into the casein substrate is separated from labeled unincorporated ATP by filtration onto 96-well filter plates using a harvester device. After 6 washes with 75 mM phosphoric acid, the bottom of the filter plates are sealed, and incorporated label is quantified after addition of 40 μL scintillation fluid using TopCount.
Based on these percent inhibition data obtained in at least two independent experiments for the compounds, compounds are ranked using semi-quantitative scores. Table A below lists a number of compounds which have been or can be prepared according to the synthetic methods described herein. Semi-quantitative score: • *>3001 nM • ** 1001-3000 nM • *** 101-1000 nM • ****<100 nM

| SMILES | pIC50 |
| --- | --- |
| O=C1NCc2cc(-c3ccc(Nc4ccc(-n5cccn5)cc4)c4nccn34)ccc21 [Compound 30, 5-(8-(4-(1H-pyrazol-1-yl)phenylamino)imidazo[1,2-a]pyridin-5-yl)isoindolin-1-one] | 5.52 to 6.00 |
| O=C1NCc2cc(-c3ccc(Nc4ccc(-n5cncn5)cc4)c4nccn34)ccc21 [Compound 31, 5-(8-(4-(1H-1,2,4-triazol-1-yl)phenylamino)imidazo[1,2-a]pyridin-5-yl)isoindolin-1-one] | 6.00 to 7.00 |
| O=C(NCc1cccc(-n2cccc2)c1)c1ccc(Nc2ccc(-c3ccc4c(c3)CNC4=O)n3ccnc23)cc1 [Compound 35, 4-[5-(1-Oxo-2,3-dihydro-1H-isoindol-5-yl)-imidazo[1,2-a]pyridin-8-ylamino]-N-(3-pyrrol-1-yl-benzyl)-benzamide] | 6.00 to 7.00 |
| CC1CCCN(C2CCN(C(=O)c3ccc(Nc4ccc(-c5ccc6c(c5)CNC6=O)n5ccnc45)cc3)CC2)C1 (stereo not shown) [Compound 54, 5-{8-[4-(3-Methyl-[1,4′]bipiperidinyl-1′-carbonyl)-phenylamino]-imidazo [1,2-a]pyridin-5-yl}-2,3-dihydro-isoindol-1-one] | 6.00 to 7.00 |
| CC1CCN(C2CCN(C(=O)c3ccc(Nc4ccc(-c5ccc6c(c5)CNC6=O)n5ccnc45)cc3)CC2)CC1 [Compound 55, 5-{8-[4-(4-Methyl-[1,4′]bipiperidinyl-1′-carbonyl)-phenylamino]-imidazo [1,2-a]pyridin-5-yl}-2,3-dihydro-isoindol-1-one] | 6.00 to 7.00 |
| O=C(NCCN1CCCCC1)c1ccc(Nc2ccc(-c3ccc4c(c3)CNC4=O)n3ccnc23)cc1 [Compound 56, 4-(5-(1-oxoisoindolin-5-yl)imidazo[1,2-a]pyridin-8-ylamino)-N-(2-(piperidin-1-yl)ethyl)benzamide] | 6.00 to 7.00 |
| CC(=O)NCCNC(=O)c1ccc(Nc2ccc(-c3ccc4c(c3)CNC4=O)n3ccnc23)cc1 [Compound 57, N-(2-acetamidoethyl)-4-(5-(1-oxoisoindolin-5-yl)imidazo[1,2-a]pyridin-8-ylamino)benzamide] | 6.00 to 7.00 |
| COCCNC(=O)c1ccc(Nc2ccc(-c3ccc4c(c3)CNC4=O)n3ccnc23)cc1 [Compound 58, N-(2-methoxyethyl)-4-(5-(1-oxoisoindolin-5-yl)imidazo[1,2-a]pyridin-8-ylamino)benzamide] | 6.00 to 7.00 |
| CC(C)N1CCN(c2ccc(Nc3ccc(-c4ccc(O)c(F)c4)n4ccnc34)cc2)CC1 [Compound 93] | 5.52 to 6.00 |
| C[C@@H]1CN(C)[C@@H](C)CN1c1ccc(Nc2ccc(-c3cc[nH]c(=O)c3)n3ccnc23)cc1F [Compound 97] | 6.00 to 7.00 |
| C[C@@H]1CN(c2ccc(Nc3ccc(-c4cc[nH]c(=O)c4)n4ccnc34)cc2)C[C@H](C)N1C [Compound 98] | 6.00 to 7.00 |
| C[C@@H]1CN(C)[C@@H](C)CN1c1ccc(Nc2ccc(-c3cc[nH]c(=O)c3)n3ccnc23)cc1 [Compound 99] | 6.00 to 7.00 |
| O=c1cc(-c2ccc(Nc3ccc(C4CCNCC4)cc3)c3nccn23)cc[nH]1 [Compound 100] | 6.00 to 7.00 |
| C[C@@H]1CN(c2ccc(Nc3ccc(-c4cc[nH]c(=O)c4)n4ccnc34)cc2F)C[C@H](C)N1C [Compound 101] | 6.00 to 7.00 |
| O=C(c1ccc(Nc2ccc(-c3cc[nH]c(=O)c3)n3ccnc23)cc1)N1CCC(N2CCCCC2)CC1 [Compound 102] | > 7.00 |
| CC(C)N1CCN(c2ccc(Nc3ccc(-c4cc[nH]c(=O)c4)n4ccnc34)cc2F)CC1 [Compound 103] | 6.00 to 7.00 |

| SMILES | pIC50 |
| --- | --- |
| CCN1CCN(c2ccc(Nc3ccc(-c4cc[nH]c(=O)c4)n4ccnc34)cc2Cl)CC1 [Compound 104] | 6.00 to 7.00 |
| CC(C)N1CCN(c2ccc(Nc3ccc(-c4cc[nH]c(=O)c4)n4ccnc34)cc2Cl)CC1 [Compound 105] | 6.00 to 7.00 |
| O=c1cc(-c2ccc(Nc3ccc(N4CCN(CC(F)F)CC4)cc3)c3nccn23)cc[nH]1 [Compound 110, 4-(8-{4-[4-(2,2-Difluoro-ethyl)-piperazin-1-yl]-phenylamino}-imidazo[1,2-a]pyridin-5-yl)-1H-pyridin-2-one] | < 5.52 |
| O=c1cc(-c2ccc(Nc3ccc(N4CCS(=O)(=O)CC4)cc3)c3nccn23)cc[nH]1 [Compound 112, 4-{8-[4-(1,1-Dioxo-1lambda*6*- thiomorpholin-4-yl)-phenylamino]-imidazo[1,2-a]pyridin-5-yl}-1H-pyridin-2-one] | < 5.52 |
| C[C@@H]1CN(c2ccc(Nc3ccc(-c4cc[nH]c(=O)c4)n4ccnc34)cc2)C[C@H](C)O1 [Compound 113, 4-{8-[4-((2R,6S)-2,6-Dimethyl-morpholin-4-yl)-phenylamino)-imidazo[1,2-a]pyridin-5-yl}-1H-pyridin-2-one] | 5.52 to 6.00 |
| O=c1cc(-c2ccc(Nc3ccc(N4CCN5CCCCC5C4)cc3)c3nccn23)cc[nH]1 (stereo not shown) [Compound 114, 4-{8′-[4-(Octahydro-pyrido[1,2-a]pyrazin-2-yl)-phenylamino]-imidazo[1,2-a]pyridin-5-yl}-1H-pyridin-2-one] | 6.00 to 7.00 |
| O=c1cc(-c2ccc(Nc3ccc(N4CCCCC4)cc3)c3nccn23)cc[nH]1 [Compound 115, 4-[8-(4-Piperidin-1-yl-phenylamino)-imidazo[1,2-a]pyridin-5-yl]-1H-pyridin-2-one] | 5.52 to 6.00 |
| O=c1cc(-c2ccc(Nc3ccc(N4CCC(F)CC4)cc3)c3nccn23)cc[nH]1 [Compound 116, 4-{8-[4-(4-Fluoro-piperidin-1-yl)-phenylamino]-imidazo[1,2-a]pyridin-5-yl}-1H-pyridin-2-one] | 5.52 to 6.00 |
| O=c1cc(-c2ccc(Nc3ccc(N4CCC(F)(F)CC4)cc3)c3nccn23)cc[nH]1 [Compound 117, 4-{8-[4-(4,4-Difluoro-piperidin-1-yl)-phenylamino]-imidazo[1,2-a]pyridin-5-yl}-1H-pyridin-2-one] | < 5.52 |
| O=c1cc(-c2ccc(Nc3ccc(N4CCCC(F)(F)C4)cc3)c3nccn23)cc[nH]1 [Compound 118, 4-{8-[4-(3,3-Difluoro-piperidin-1-yl)-phenylamino]-imidazo[1,2a]pyridin-5-yl}-1H-pyridin-2-one] | < 5.52 |
| c1cn2c(-c3cn[nH]c3)ccc(Nc3ccc(N4CCC(N5CCCCC5)CC4)cc3)c2n1 [Compound 119, (4[1,4′]Bipiperidinyl-1′-yl-phenyl)-[5-(1H-pyrazol-4-yl)-imidazo[1,2-a]pyridin-8-yl]-amine] | 6.00 to 7.00 |
| CC1CCN(C2CCN(c3ccc(Nc4ccc(-c5cc[nH]c(=O)c5)n5ccnc45)cc3)CC2)CC1 [Compound 121, 4-{8-[4-(4-Methyl-[1,4′]bipiperidinyl-1′-yl)-phenylamino]-imidazo[1,2-a]pyridin-5-yl}-1H-pyridin-2-one] | 6.00 to 7.00 |
| CC1CCCN(C2CCN(c3ccc(Nc4ccc(-c5cc[nH]c(=O)c5)n5ccnc45)cc3)CC2)C1 (stereo not shown) [Compound 122, 4-{8-[4-(3-Methyl-[1,4′]bipiperidinyl-1′-yl)-phenylamino]-imidazo[1,2-a]pyridin-5-yl}-1H-pyridin-2-one] | 6.00 to 7.00 |
| O=c1cc(-c2ccc(Nc3ccc(N4CCC(N5CCC(O)CC5)CC4)cc3)c3nccn23)cc[nH]1 [Compound 123, 4-{8-[4-(4-Hydroxy-[1,4′]bipiperidinyl-1′-yl)-phenylamino]-imidazo[1,2-a]pyridin-5-yl}-1H-pyridin-2-one] | 5.52 to 6.00 |
| O=c1cc(-c2ccc(Nc3ccc(N4CCCC4)c(Cl)c3)c3nccn23)cc[nH]1 [Compound 125, 4-[8-(3-Chloro-4-pyrrolidin-1-yl-phenylamino)-imidazo[1,2-a]pyridin-5-yl]-1H-pyridin-2-one] | < 5.52 |
